ChEMBL document CHEMBL1201862, “PubChem BioAssay data set” (2004)
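Dose response: 5 concentrations. Exposure: 48 h. Format: 96-well plates. Endpoint: linear interpolation; highest concentration if not reached. GI50 marks 50% less growth.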 Active and inactive are the calls of the source. Rule as the data show it: active = GI50 up to about 1.1 µM and inactive = higher.

Assays:
Assay in all cases: NCI anticancer screen, dose series, 48 h
[1] = system: PC-3
[2] = system: 786-0
[3] = system: XF498
[4] = system: HOP-18
[5] = system: DMS-273
[6] = system: DMS-114
[7] = system: RXF 631
[8] = system: LXFL 529
[9] = system: M19-MEL

SMILES: CC(C)(C)[Si](C)(C)OCC1OC(n2cnc3c(N)ncnc32)CC1OS(C)(=O)=O (stereo not given)
- GI50 [1]: > 100 µM (inactive)

SMILES: O=C(O)/C(Cc1ccnc2ccccc12)=N\O
- GI50 [1]: > 100 µM (inactive)
- GI50 [2]: > 100 µM (inactive)

SMILES: CC1=C(C)[C@@]2(C)O[C@@]2(C)O[C@@]2(C)O[C@@]12C
- GI50 [1]: > 100 µM (inactive)

SMILES: C=CCC(O[Si](C)(C)C(C)(C)C)c1cc(O[Si](C)(C)C(C)(C)C)ccc1OC (stereo not given)
- GI50 [3]: > 58.5 µM (inactive)
- GI50 [4]: > 100 µM (inactive)
- GI50 [5]: > 95.1 µM (inactive)
- GI50 [6]: > 59.7 µM (inactive)

SMILES: CN1c2ccccc2C(=O)NC12CCN(CCCC(=O)c1ccc(F)cc1)CC2
- GI50 [1]: 78.2 µM (inactive)
- GI50 [2]: 74.3 µM (inactive)

SMILES: COC(=O)CCC(C)C1CCC2C3CCC4CC5CCC4(C)C3(O5)C(Br)C(Br)C12C (stereo not given)
- GI50 [1]: > 100 µM (inactive)
- GI50 [2]: > 100 µM (inactive)

SMILES: CN1CCN(c2cc(-c3cc4ccccc4o3)oc(=O)c2C#N)CC1
- GI50 [7]: 41.4 µM (inactive)
- GI50 [8]: 81.7 µM (inactive)
- GI50 [3]: > 100 µM (inactive)
- GI50 [5]: 57.9 µM (inactive)
- GI50 [6]: 69.2 µM (inactive)

SMILES: O=c1cc(-c2cc(O)c(O)c(-c3c(O)cc4oc(-c5ccc(O)c(O)c5)cc(=O)c4c3O)c2)oc2cc(O)cc(O)c12
- GI50 [1]: > 25 µM (inactive)

SMILES: CC(=O)OC1CC2(O)C(CCC3(C)C(c4ccc(=O)oc4)CCC32O)C2(C)C1=CC(O)C1OC12 (stereo not given)
- GI50 [3]: 0.0693 µM (active)
- GI50 [9]: 0.0502 µM (active)
- GI50 [4]: 0.048 µM (active)
- GI50 [5]: 0.04 µM (active)
- GI50 [6]: 0.025 µM (active)

SMILES: C=CCc1cccc(/C=N\N/C(N)=N/O)c1O
- GI50 [3]: 4.27 µM (inactive)
- GI50 [4]: 5.09 µM (inactive)
- GI50 [5]: 3.05 µM (inactive)
- GI50 [6]: 2.28 µM (inactive)

SMILES: O=P1(c2ccccc2)Nc2ccccc2SSc2ccccc2N1
- GI50 [3]: 17.8 µM (inactive)
- GI50 [9]: 18.7 µM (inactive)
- GI50 [4]: 19.2 µM (inactive)
- GI50 [5]: 17.4 µM (inactive)
- GI50 [6]: 19.5 µM (inactive)

SMILES: COc1cc(CCCOC2OC(COC3OCC(O)C(O)C3O)C(O)C(O)C2O)cc2cc(-c3ccc4c(c3)OCO4)oc12 (stereo not given)
- GI50 [3]: > 175 µM (inactive)
- GI50 [9]: > 175 µM (inactive)
- GI50 [5]: > 175 µM (inactive)
- GI50 [6]: > 175 µM (inactive)

SMILES: Oc1c(CNCCCN2CCCC2)cc(Cl)c2cccnc12
- GI50 [3]: 2.56 µM (inactive)
- GI50 [9]: 2.52 µM (inactive)
- GI50 [4]: 4.95 µM (inactive)
- GI50 [5]: 2.83 µM (inactive)
- GI50 [6]: 3.05 µM (inactive)

SMILES: COC(=O)c1cc(NC2OCC(OC(C)=O)C(OC(C)=O)C2OC(C)=O)nc(SC)c1C(=O)OC (stereo not given)
- GI50 [1]: > 100 µM (inactive)
- GI50 [2]: > 100 µM (inactive)

SMILES: COC(=S)OC1CC(n2cnc3c(N)ncnc32)OC1CO[Si](C)(C)C(C)(C)C (stereo not given)
- GI50 [1]: 12.1 µM (inactive)

SMILES: COC(=O)C1=C(C)N2CCOC2(C)C(C(=O)OC)C1c1ccc[nH]1 (stereo not given)
- GI50 [8]: > 100 µM (inactive)
- GI50 [9]: > 100 µM (inactive)
- GI50 [6]: > 100 µM (inactive)

SMILES: Oc1ccc(NCn2c(=S)sc3ccccc32)cc1
- GI50 [1]: > 100 µM (inactive)

SMILES: COc1ccc(OC)c(SC(CC(=O)c2ccccc2)c2ccccc2)c1 (stereo not given)
- GI50 [1]: 14.8 µM (inactive)
- GI50 [2]: 15.6 µM (inactive)

SMILES: COc1cccc(C2C(C(=O)O)=C(CO)Oc3cc4c(cc32)OCO4)c1OC (stereo not given)
- GI50 [7]: > 100 µM (inactive)
- GI50 [8]: > 100 µM (inactive)
- GI50 [3]: 9.25 µM (inactive)
- GI50 [9]: > 100 µM (inactive)
- GI50 [4]: > 100 µM (inactive)

SMILES: Cc1ccc2oc3c(ccc(=O)n3C)c(=O)c2c1
- GI50 [1]: > 100 µM (inactive)

SMILES: C1CC2=C(C1)[Se]C(=C1Sc3nsnc3S1)[Se]2
- GI50 [1]: > 100 µM (inactive)
- GI50 [2]: > 100 µM (inactive)

SMILES: COC(=O)c1ccccc1/N=C(/NC1CCCCCC1)NS(=O)(=O)c1ccc(C)cc1
- GI50 [1]: > 100 µM (inactive)
- GI50 [2]: > 100 µM (inactive)

SMILES: COc1cccc2c1C(=O)c1c(O)c3c(c(O)c1C2=O)C[C@@](O)(C(=O)CO)C[C@@H]3OC1CC(N2CCOCC2)C(O)C(C)O1 (stereo not given in full)
- GI50 [1]: 0.033 µM (active)
- GI50 [3]: 0.0025 µM (active)
- GI50 [9]: 0.00552 µM (active)
- GI50 [4]: 0.0034 µM (active)
- GI50 [5]: 0.00409 µM (active)
- GI50 [6]: 0.0025 µM (active)

SMILES: COC(=O)[C@@H]1C=C[C@H](NC(C)=O)C1
- GI50 [1]: > 100 µM (inactive)

SMILES: COc1nc2cccc(C(O)c3ccccc3)c2nc1-c1ccccc1 (stereo not given)
- GI50 [1]: 4.46 µM (inactive)

SMILES: Cc1cc(C)nc(NS(=O)(=O)c2ccc(Nc3c4ccccc4nc4c(C(=O)N5CCN(CCOS(C)(=O)=O)CC5)cccc34)cc2)n1
- GI50 [3]: > 100 µM (inactive)
- GI50 [9]: > 100 µM (inactive)
- GI50 [6]: 99.1 µM (inactive)

SMILES: Cc1cc(S(=O)(=O)Nc2nc(Nc3ccccc3)n[nH]2)c(SSc2cc(Cl)c(C)cc2S(=O)(=O)Nc2nc(Nc3ccccc3)n[nH]2)cc1Cl
- GI50 [1]: > 100 µM (inactive)

SMILES: NNC(=O)CCc1ccc2ccc3ccccc3c2c1
- GI50 [1]: 67.3 µM (inactive)
- GI50 [2]: 94.4 µM (inactive)

SMILES: O=C1OC(c2ccccc2)=N/C1=C\c1ccc(Oc2ccc(Cl)c(Cl)c2)cc1
- GI50 [8]: 25.6 µM (inactive)
- GI50 [2]: 29.9 µM (inactive)
- GI50 [9]: 36.9 µM (inactive)
- GI50 [4]: > 100 µM (inactive)
- GI50 [6]: 15.4 µM (inactive)

SMILES: CC1Oc2c(c(O)cc3oc(=O)cc(-c4ccccc4)c23)C(=O)C1C (stereo not given)
- GI50 [7]: > 100 µM (inactive)
- GI50 [8]: > 100 µM (inactive)
- GI50 [3]: > 100 µM (inactive)
- GI50 [4]: > 100 µM (inactive)
- GI50 [5]: > 100 µM (inactive)

SMILES: NC(CCCCCCCCCCP(=O)(O)O)C(=O)O (stereo not given)
- GI50 [1]: > 100 µM (inactive)
